Experimental data as given in patent US20250312291A1, “DIARYLHEPTANOID BASED MEDICINAL PREPARATION AND METHOD OF PREPARATION OF THE SAME” (ARJUNA NATURAL PRIVATE LIMITED, priority 2022, published 2025).

System: Amphistome ova
Test: Deworming in cows positive for Amphistome ova (ova checked from dung matter)
Format: in vivo
Conditions: before treatment (baseline)
Text: In one embodiment efficacy of diarylheptanoid metal complex on deworming in cows was studied. Cows positive for Amphistome ova were selected and treated with diarylheptanoid metal complex. Deworming in cows is important for several reasons. First, internal parasites or worms can cause significant harm to cow health and productivity. These parasites can cause damage to the cow's gastrointestinal tract, leading to reduced feed intake, weight loss, and poor growth rates. In severe cases, internal parasites can even lead to death. Second, internal parasites can also have economic impacts on the farm. Infected cows may have reduced milk production and lower-quality meat, which can lead to financial losses for the farmer. Third, internal parasites can also be a source of infection for other animals on the farm. Some parasites can be passed from cow to cow or from cow to other species such as sheep or goats. After 30 days of treatment with diarylheptanoid calcium complex, the number of Ova in the dung matter is nil compared to untreated control.
Twenty cows that were positive for Amphistome ova were selected for this study. Cows were grouped into four groups with 5 cows in each group. Cows were segregated as follows.
Before and after 30 days of treatment ova was checked from the dung matter.

With `CCCSc1ccc2nc(NC(=O)OC)[nH]c2c1` [Albendazole] the “Ova Before” value was “+ + + + +”.
